Data taken from patent US8097728B2, “Iminosugar compounds with antiflavirus activity” (Philadelphia Health & Education Corporation, priority 2007, dated 2012).
Where two headings read alike, the source gives them in different places.

What was measured:
[1] = test system: ER glucosidase; details: 6000 uM; cited from earlier work
[2] = test system: HBV; assay: HBV antigen assay: LHBs and MHBs secreted by HepG2.2.15 cells, immunoblot; type: cell-based, Hepatitis B virus; details: 7 days
Method: MHBs and LHBs are HBV envelope proteins that are sensitive to glucosidase inhibition and inhibition of these important viral glycoproteins serves as a surrogate for HBV growth. […] To assess the activity of this compound in the context of viral replication, HepG2 2.2.15 cells were incubated with the indicated DNJ derived compound. HepG 2.2.15 cells secrete readily detectable amounts of MHBs and LHBs into the culture medium. After 7 days of incubation, the amount of HBV M and L in the culture medium was determined by western blot. […] The nature of the selective antiviral activity is not known, but may be due to cell specific activity since HBV is studied in human liver derived hepatoblastoma HepG2 cells and BVDV and WNV were studied in MDBK and BHK cells, respectively.
HBV antigen assay: Antiviral activity against HBV was determined using HepG2.2.15 cells, which contain a dimer of the HBV genome and express all viral gene products, including envelope glycoproteins (Sells, Chen, and Acs, 1987). Briefly, HepG2.2.15 cells were seeded in 24 well trays, and allowed to grow to confluence prior to addition of drug, as described previously (Simsek et al., 2005). After seven days of treatment, supernatants were harvested and assayed for the presence of the Large Hepatitis B (LHBs) and middle Hepatitis B (MHBs) glycoproteins by electrophoresis through 12% polyacrylamide gels and immunoblotting with a polyclonal antibody that recognizes the pre-S2 region of the LHBs and MHBs proteins (Research Diagnostics Inc., Flanders, N.J.) as described (Simsek et al., 2005). Quantitation was performed using AlphaEase software (Alphalnnotech).

[3] = test system: DV serotype 2; assay: DV yield reduction assay in BHK cells; type: cell-based, Dengue virus (DV) serotype 2; details: DV (BHK)
Method: In the DV infection assay, a serotype 2 DV was used to infect BHK cells in the presence or absence of testing compounds and viruses produced after 72 hours were titered in a manner similar to the WNV assay. In this experiment, N-butylcyclohexyl-DNJ (SP169), N-pentyl(1-hydroxylcyclohexyl)-DNJ (OSL-95II), […] and N-propylcyclohexyl-DNJ (SP173) were compared with NNDNJ (Wu et al., 2002) and castanospermine. […] All compounds had no toxicity at the highest concentrations used in this experiment (FIG. 5B, Table 1).

[4] = test system: WNV; assay: WNV yield reduction assay in BHK cells
Method: Cells and viruses. BVDV-free MDBK cells (CCL 22) were obtained from the American Type Culture Collection and propagated in DMEM/F12 essential medium supplemented with penicillin (500 U/ml), streptomycin (500 U/ml), and 10% heat inactivated horse serum (Invitrogen). Cells were maintained in a humidified incubator at 37° C. with 5% CO2. BVDV (NADL strain) was obtained from Dr. Rubin Donis (Univ. of Nebraska-Lincoln). For infections, virus inoculum was added in complete medium and adsorbed for 1 h at 37° C., the inoculum was then removed, the cells washed once with medium and fresh medium containing compounds added. Virus stocks were prepared by freeze-thawing the infected cells and culture supernatant three times followed by centrifugation at 1,000 g for 5 min. Stock titers were determined, and stocks were aliquoted and stored at −80° C. WNV was obtained from a cDNA clone of a human 2002 isolate from Texas (Rossi et al., 2005); virus obtained from BHK cells electroporated with the in vitro synthesized RNA from this cDNA clone was passaged in Vero cells before use in antiviral assays. Dengue virus (DV) serotype 2 was a New Guinea C virus that had been passaged 28 times in suckling mouse brain, twice in Vero cells, and once in C6/36 mosquito cells.
WNV and DV Yield Reduction assay: Antiviral activity against WNV was evaluated in a yield reduction assay. Briefly, BHK cells were plated in 96-well plates at a concentration of 2.5×10^4 cells/well. 24 hours after plating, the cells were infected with WNV at an MOI of 0.05. After 1 hour the inoculum was aspirated and the cells re-fed with fresh DMEM containing dilutions of the test compounds. Plates were then incubated at 37° C. for 48 hours, the supernatant collected and the WNV produced titered. For virus titration, Vero cells were plated in 96-well plates at 8.0×10^3 cells/well and incubated overnight. The Vero cell monolayers were then infected for 1 hour with various dilutions of the WNV supernatant, overlaid with media containing 0.6% tragacanth (ICN, CA) and incubated at 37° C. for 24-30 hours. The culture media was then aspirated; the plate was rinsed, air-dried, and fixed with 50 ul/well acetone/methanol (50:50). Viral foci were detected for enumeration by immunostaining as described previously (Rossi et al., 2005). For antiviral testing against DV, DV serotype 2, drug incubations and titrations were performed essentially as described for WNV, except that the virus was harvested from drug-treated cultures 72 hrs after infection, and foci were stained using hybridoma culture fluid harvested from monoclonal antibody-producing hybridoma clone D1-4G2 (Gentry et al., 1982) following 3 days of incubation on Vero cells under the tragacanth overlay.
For this purpose, BHK cells were infected with WNV at an moi of 0.05, and incubated in either the absence or presence of various concentrations of N-butylcyclohexyl-DNJ (SP169) and N-propylcyclohexyl-DNJ (SP173). After three days, the amount of progeny virus produced was determined by plaque assays on indicator Vero cells.

[5] = test system: BHK cells; assay: MTT compound toxicity assay on BHK cells; type: cell-based
Method: (§1) Compound toxicity assay. Compound cytotoxicity was assessed by using an MTT based toxicity assay kit (Sigma, St. Louis, Mo.) as described elsewhere (Gu et al., 2006). Briefly, cells cultured under conditions identical to those used in the viral assay were incubated with various concentrations of the compound for 72 hours. MTT was added to the media to a final concentration of 0.5 mg/ml and was incubated for 3 hours at 37 C. After the culture media was removed, formazan crystals was dissolved by adding 150 ul of solubilization solution (10% Triton X-100, 0.1 N HCl in anhydrous isopropanol) for 15-30 minutes. The absorbance of the dissolved formazan was measured spectrophotometrically at 570 nm with absorbance at 690 nm as background.

[6] = test system: MDBK cells; assay: MTT compound toxicity assay on MDBK cells; type: cell-based, Bovine; details: BVDV (MDBK); concentration reducing MTT values (570 nm) by 50% relative to DMSO; 72 hours
Method: as §1
(§2) The anti-viral activity of this family of compounds against BVDV was then determined by a single cycle viral yield reduction assay in Madin Darby Bovine Kidney (MDBK) cells where the compounds are incubated with cells for 20 hours during the period of infection. Yields of virus were then determined by plaque assay on new MDBK cell monolayers. Compound toxicity was measured by MTT assay and the CC50 determined as the concentration of compound producing 50% reduction in absorption readings. […] This is consistent with previous findings in which oxygenation and methoxylation of side chains emanating from the ring nitrogen were less toxic in tissue culture and in animals than straight chain alkylated DNJs (Mehta et al., 2002b).

[7] = test system: BVDV; assay: BVDV single cycle virus yield reduction assay in MDBK cells; type: cell-based, Bovine Viral Diarrhea virus (NADL strain)
Method: BVDV antiviral and plaque assays. To evaluate antiviral activity against BVDV, a single cycle virus yield reduction assay was performed in the presence of various concentrations of the test compounds. Specifically, 2×10^5 MDBK cells/well were plated in 24 well plates. Twenty-four hours later, the cells were infected with BVDV at a multiplicity of infection (moi) of 0.5 PFU/cell in 100 ul complete media. After adsorption for 1 h at 37° C., the inoculum was removed, and cells were washed with media before media containing vehicle or various concentrations of each compound was added. At 22 hour post infection, both cell and media were collected and freeze-thawed three times before the virus was titered. For BVDV virus titer determination, 10^−2, 10^−3, and 10^−4 dilutions of virus were inoculated onto MDBK cells as described previously (Gu et al., 2000; Jordan et al., 2002). After absorption and washing the cells were overlaid with medium containing methylcellulose or soft agar and incubated at 37° C. for 3 days or until plaques were visible. Plaques were counted directly under the microscope or after staining with crystal violet in 70% methanol for 15 min.
as §2

[8] = test system: MHBs; details: MHBs expressed transiently in cells; read-out: IC50, reduction of secretion of MHBs; cited from earlier work

Compound	inhibition of the ER glucosidase [1]	reduction of MHBs and LHBs in culture medium (in words) ([2]; 6000 uM (6 mM), FIG. 6B)	SI (Selective Index, CC50/IC50) [3]	IC50 ([3]; serotype 2, 72 hrs, read-out: IC50)	antiviral activity against WNV (in words) ([4]; BHK cells, moi 0.05, FIG. 3B / 4D)	SI (Selective Index, CC50/IC50) ([4]; WNV (BHK))	IC50 ([4]; WNV (BHK), plaque number reduced by 50% relative to DMSO, 48 hours)	IC50 ([4]; read-out: concentration inhibiting 50% of the WNV progeny produced, text to FIG. 3B, BHK cells, moi 0.05)	concentration without any detectable cell toxicity (highest concentration tested) ([5]; BHK cells, measured in parallel to WNV assay, data not shown)	CC50 ([5]; WNV (BHK), MTT, 50% reduction relative to DMSO)	CC50 [6]	inhibition of secretion of viral glycoproteins MHBs and LHBs (in words) ([2]; 50 uM, FIG. 6A)	SI (Selective Index, CC50/IC50) ([7]; BVDV (MDBK))	IC50 ([7]; tissue culture, data not shown, read-out: concentration inhibiting 50% of the yield of BVDV)	IC50 [8]
OC[C@H]1NC[C@H](O)[C@@H](O)[C@@H]1O [DNJ, 1,5-dideoxy-1,5-imino-D-glucitol, reference compound]	at least 90%	antiviral activity at this dose is consistent with previous findings	–	–	–	–	–	–	–	–	–	–	–	–	–
OC[C@@H]1[C@@H](O)[C@H](O)[C@@H](O)CN1CCCCC1CCCCC1 [SP169, N-butylcyclohexyl-DNJ]	–	–	>66	1.5 µM	comparable to NNDNJ in activity	>40	2.5 µM	5 µM	100 µM	> 100 µM	300 µM	unable to inhibit secretion of viral glycoproteins	>100	3 µM	≤ 35 µM
